Source: ChEMBL document CHEMBL1138676, “Liver-selective glucocorticoid antagonists: a novel treatment for type 2 diabetes” (J Med Chem, 2004)
pKi: −log10 of the molar value.

Experiments:
[1] = target: T1, Thyroid hormone receptor beta (Homo sapiens, UniProt P10828); experiment: Inhibition of human Thyroid hormone receptor beta
T1 sequence (P10828 whole entry): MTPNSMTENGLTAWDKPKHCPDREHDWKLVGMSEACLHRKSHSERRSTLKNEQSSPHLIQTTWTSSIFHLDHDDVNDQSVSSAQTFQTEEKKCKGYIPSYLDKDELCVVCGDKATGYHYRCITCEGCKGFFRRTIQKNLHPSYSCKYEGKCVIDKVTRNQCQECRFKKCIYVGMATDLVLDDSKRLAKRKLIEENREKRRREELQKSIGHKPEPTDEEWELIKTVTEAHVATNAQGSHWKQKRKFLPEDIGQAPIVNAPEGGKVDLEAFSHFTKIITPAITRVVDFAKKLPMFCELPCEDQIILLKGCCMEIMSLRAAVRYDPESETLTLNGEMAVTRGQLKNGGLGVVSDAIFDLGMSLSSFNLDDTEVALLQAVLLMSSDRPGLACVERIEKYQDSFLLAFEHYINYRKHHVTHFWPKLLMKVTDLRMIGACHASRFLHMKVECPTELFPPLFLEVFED

Androgen receptor = target: T2, Androgen receptor (Homo sapiens, UniProt P10275)
T2 sequence (P10275 whole entry): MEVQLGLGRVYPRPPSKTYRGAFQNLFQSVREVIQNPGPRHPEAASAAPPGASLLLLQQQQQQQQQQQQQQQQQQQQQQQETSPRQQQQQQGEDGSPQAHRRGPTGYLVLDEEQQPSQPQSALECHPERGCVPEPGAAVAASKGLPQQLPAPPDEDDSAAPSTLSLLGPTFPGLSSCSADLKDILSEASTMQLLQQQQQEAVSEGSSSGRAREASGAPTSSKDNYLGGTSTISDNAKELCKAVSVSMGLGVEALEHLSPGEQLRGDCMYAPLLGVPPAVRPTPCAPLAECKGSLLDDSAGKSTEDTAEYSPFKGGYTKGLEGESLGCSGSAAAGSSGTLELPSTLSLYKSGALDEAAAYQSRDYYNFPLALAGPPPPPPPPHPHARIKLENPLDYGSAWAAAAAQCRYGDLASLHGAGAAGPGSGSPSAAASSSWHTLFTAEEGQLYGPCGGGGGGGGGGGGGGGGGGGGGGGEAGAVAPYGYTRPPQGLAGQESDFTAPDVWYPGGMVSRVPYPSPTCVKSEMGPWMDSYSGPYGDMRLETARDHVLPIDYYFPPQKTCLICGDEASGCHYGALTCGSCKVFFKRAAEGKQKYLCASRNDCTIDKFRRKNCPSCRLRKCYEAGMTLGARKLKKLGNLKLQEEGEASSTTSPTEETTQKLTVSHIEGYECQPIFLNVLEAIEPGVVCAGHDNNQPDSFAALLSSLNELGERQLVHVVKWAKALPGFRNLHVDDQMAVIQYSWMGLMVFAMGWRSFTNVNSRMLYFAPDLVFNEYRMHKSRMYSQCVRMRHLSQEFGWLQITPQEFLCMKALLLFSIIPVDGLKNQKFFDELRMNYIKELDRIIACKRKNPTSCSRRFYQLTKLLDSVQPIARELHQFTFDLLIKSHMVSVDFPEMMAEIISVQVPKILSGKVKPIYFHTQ
Description: Inhibition of human androgen receptor

Estrogen receptor beta = Estrogen receptor beta (Homo sapiens, UniProt Q92731); experiment: Inhibition of human Estrogen receptor beta
Estrogen receptor = target: T3, Estrogen receptor (Homo sapiens, UniProt P03372); experiment: Inhibition of human Estrogen receptor alpha
T3 sequence (P03372 whole entry): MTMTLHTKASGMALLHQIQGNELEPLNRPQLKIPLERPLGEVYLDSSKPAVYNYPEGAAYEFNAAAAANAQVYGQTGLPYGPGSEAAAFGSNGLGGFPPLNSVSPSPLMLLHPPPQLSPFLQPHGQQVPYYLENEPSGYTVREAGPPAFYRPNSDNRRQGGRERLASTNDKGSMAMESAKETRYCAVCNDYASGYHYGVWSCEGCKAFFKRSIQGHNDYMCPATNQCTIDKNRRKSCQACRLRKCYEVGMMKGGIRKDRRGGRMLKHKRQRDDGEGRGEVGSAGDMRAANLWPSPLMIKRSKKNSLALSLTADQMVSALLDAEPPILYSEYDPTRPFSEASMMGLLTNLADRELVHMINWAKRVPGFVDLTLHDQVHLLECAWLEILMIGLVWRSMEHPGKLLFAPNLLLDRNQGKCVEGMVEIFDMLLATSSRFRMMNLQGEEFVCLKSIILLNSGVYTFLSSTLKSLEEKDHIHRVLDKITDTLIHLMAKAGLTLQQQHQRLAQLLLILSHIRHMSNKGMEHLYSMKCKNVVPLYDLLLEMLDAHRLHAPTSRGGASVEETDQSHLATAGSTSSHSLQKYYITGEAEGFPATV

[2] = target: Glucocorticoid receptor (Rattus norvegicus) (UniProt P06536); experiment: Inhibition of glucocorticoid receptor mediated tyrosine amino transferase activity
[3] = target: T4, Mineralocorticoid receptor (Homo sapiens, UniProt P08235)
T4 sequence (P08235 whole entry): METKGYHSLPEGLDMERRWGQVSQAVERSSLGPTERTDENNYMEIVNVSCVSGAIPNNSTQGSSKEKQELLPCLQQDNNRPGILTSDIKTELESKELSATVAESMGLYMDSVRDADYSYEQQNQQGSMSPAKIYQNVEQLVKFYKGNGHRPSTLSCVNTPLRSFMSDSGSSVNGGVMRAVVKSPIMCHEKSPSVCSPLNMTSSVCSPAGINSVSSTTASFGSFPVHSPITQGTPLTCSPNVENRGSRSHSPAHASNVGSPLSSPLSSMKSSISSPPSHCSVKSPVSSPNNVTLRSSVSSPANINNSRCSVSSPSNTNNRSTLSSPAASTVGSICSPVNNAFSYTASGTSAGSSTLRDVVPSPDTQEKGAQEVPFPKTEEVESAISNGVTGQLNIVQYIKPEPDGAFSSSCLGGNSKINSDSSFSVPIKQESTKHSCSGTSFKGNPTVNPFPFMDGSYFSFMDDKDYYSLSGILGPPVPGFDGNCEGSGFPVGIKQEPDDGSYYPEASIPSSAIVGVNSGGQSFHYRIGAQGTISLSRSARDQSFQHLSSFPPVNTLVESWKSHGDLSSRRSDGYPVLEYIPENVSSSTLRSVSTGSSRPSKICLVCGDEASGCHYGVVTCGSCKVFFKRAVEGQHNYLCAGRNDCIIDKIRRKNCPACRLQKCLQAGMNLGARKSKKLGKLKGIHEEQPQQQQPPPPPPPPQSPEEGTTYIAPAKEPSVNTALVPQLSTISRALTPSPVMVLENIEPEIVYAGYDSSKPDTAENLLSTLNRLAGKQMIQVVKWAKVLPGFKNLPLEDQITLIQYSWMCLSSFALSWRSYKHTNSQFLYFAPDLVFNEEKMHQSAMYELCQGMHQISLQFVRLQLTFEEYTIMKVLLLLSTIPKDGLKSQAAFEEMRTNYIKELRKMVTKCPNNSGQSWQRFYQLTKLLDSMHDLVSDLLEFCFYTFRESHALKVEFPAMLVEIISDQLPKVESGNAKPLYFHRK
Description: Inhibition of human Mineralocorticoid receptor

Chain of Estrogen receptor beta (Q92731 whole entry): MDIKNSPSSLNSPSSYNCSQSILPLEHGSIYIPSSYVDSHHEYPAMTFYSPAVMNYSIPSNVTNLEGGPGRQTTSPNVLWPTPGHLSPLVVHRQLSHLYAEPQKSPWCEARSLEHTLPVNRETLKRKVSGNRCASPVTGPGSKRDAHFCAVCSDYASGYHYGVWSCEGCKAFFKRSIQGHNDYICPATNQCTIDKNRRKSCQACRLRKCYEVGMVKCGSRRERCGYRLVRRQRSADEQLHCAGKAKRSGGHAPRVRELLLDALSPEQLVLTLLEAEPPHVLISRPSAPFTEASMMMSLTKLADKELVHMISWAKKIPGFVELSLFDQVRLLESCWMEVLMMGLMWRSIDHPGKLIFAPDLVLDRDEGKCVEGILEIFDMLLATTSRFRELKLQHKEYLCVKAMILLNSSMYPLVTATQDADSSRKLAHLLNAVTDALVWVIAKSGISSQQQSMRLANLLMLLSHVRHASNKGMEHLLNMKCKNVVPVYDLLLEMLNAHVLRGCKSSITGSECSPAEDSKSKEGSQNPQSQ
Chain of Glucocorticoid receptor (Rattus norvegicus) (P06536 whole entry, looked up): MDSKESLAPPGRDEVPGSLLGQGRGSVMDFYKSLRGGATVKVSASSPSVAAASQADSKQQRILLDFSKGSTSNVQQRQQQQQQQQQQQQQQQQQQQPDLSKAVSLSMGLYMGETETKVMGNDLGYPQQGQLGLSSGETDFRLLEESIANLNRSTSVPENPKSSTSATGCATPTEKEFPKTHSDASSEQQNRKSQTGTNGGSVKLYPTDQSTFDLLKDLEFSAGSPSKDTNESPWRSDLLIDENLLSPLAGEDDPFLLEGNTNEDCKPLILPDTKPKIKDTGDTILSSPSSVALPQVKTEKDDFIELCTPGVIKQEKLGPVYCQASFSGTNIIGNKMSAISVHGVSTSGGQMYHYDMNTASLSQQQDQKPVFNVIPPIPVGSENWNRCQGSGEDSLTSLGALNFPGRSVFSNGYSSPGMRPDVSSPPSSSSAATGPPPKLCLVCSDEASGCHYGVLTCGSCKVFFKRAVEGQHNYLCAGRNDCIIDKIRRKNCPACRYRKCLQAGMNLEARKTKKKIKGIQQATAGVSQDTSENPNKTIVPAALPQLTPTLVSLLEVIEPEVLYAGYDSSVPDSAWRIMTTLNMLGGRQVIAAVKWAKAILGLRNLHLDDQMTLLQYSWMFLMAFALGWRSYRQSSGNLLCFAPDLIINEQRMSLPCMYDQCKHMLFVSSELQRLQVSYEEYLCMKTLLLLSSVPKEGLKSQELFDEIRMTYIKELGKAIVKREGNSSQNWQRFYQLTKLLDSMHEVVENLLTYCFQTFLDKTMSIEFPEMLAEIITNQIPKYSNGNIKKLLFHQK

Row | SMILES | pKi [1] | pKi (Androgen receptor) | pKi (Estrogen receptor beta) | pKi (Estrogen receptor) | pKi [2] | pKi [3]
1 | C#C[C@]1(O)CC[C@H]2[C@@H]3CCC4=CC(=O)CCC4=C3[C@@H](c3ccc(N(C)CCCC(=O)N(C)C4CC[C@@]5(C)[C@@H](C4)C[C@@H](O)[C@@H]4[C@@H]5C[C@H](O)[C@]5(C)[C@@H]([C@H](C)CCC(=O)O)CC[C@@H]45)cc3)C[C@@]21C (stereo partly drawn) | < 5.65 | 8.13 | 7.89 | 8.21 | 7.22 | 6.72
2 | C#C[C@]1(O)CC[C@H]2[C@@H]3CCC4=CC(=O)CCC4=C3[C@@H](c3ccc(N(C)C(=O)CNC(=O)O[C@@H]4C[C@@H]5CC(O)CC[C@]5(C)[C@H]5C[C@H](O)[C@]6(C)[C@@H]([C@H](C)CCC(=O)O)CC[C@H]6[C@H]45)cc3)C[C@@]21C (stereo partly drawn) | < 5.65 | 7.43 | < 6.12 | 7.03 | 6.64 | < 6.00
3 | C#C[C@]1(O)CC[C@H]2[C@@H]3CCC4=CC(=O)CCC4=C3[C@@H](c3ccc(N(C)CCOC4CC[C@@]5(C)[C@@H](C4)C[C@@H](O)[C@@H]4[C@@H]5C[C@H](O)[C@]5(C)[C@@H]([C@H](C)CCC(=O)O)CC[C@@H]45)cc3)C[C@@]21C (stereo in doubt; form 1) | < 5.65 | 8.05 | 7.05 | 7.96 | 6.66 | < 6.00
